Values of other authors as cited in patent publication US20060186374A1, “Hydrophobic propellant gas mixtures for producing insulating foams” (priority 2003, published 2006).

Details: octanol/water, decadic logarithm

| Structure (SMILES) | log PO/W |
| --- | --- |
| FC(F)CC(F)(F)F [R245fa, 1,1,1,3,3-pentafluoropropane] | 1.35 |
| FCC(F)(F)F [R134a, 1,1,1,2-tetrafluoroethane] | 1.06 |
| CCC [Propane, propane] | 2.3 |
| CC(F)F [R152a, 1,1-difluoroethane] | 0.75 |
| CC(F)(F)CC(F)(F)F [R365mfc, 1,1,1,3,3-pentafluorobutane] | 1.6 |
| CC(C)C [i-butane] | 2.8 |
| COC [DME, dimethyl ether] | 0.1 |
| FC(C(F)(F)F)C(F)(F)F [R227ea, 1,1,1,2,3,3,3-heptafluoropropane] | 2.5 |
